Experimental data as given in US20090042993A1, “IDENTIFICATION OF NOVEL POST-TRANSLATIONAL PROTEIN MODIFICATIONS” (priority 2007, published 2009).
Peptide text beside a SMILES is read from it. * marks the point of attachment. Cbz = O=C(OCc1ccccc1)*

Tests used:
[1] = target: T1, ER membrane acetyl-CoA transport activity (Cricetulus griseus, UniProt G3H231); test: Acetyl-CoA transport assay into intact ER vesicles; format: biochemical, Chinese Hamster; settings: ER vesicles, increasing concentrations of Coenzyme A
T1 sequence (G3H231 1-550): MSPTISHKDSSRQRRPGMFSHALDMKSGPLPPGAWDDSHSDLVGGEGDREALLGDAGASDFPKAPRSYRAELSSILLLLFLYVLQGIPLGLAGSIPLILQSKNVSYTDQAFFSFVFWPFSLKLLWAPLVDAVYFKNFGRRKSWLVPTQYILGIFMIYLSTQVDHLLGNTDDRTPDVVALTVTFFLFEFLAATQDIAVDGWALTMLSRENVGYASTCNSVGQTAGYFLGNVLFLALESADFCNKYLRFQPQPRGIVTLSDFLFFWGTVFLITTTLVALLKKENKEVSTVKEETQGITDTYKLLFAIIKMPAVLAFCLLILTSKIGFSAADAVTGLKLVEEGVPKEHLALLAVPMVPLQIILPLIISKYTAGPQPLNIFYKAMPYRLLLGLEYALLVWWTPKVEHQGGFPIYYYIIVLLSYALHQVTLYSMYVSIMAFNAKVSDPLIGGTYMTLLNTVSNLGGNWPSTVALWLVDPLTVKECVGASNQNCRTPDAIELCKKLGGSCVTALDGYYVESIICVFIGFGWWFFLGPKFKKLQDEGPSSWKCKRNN

[2] = system: BACE1; test: BACE1 steady-state levels by Western blot in stably transfected CHO cells; format: cell-based, human; settings: CHO cells, proteasome inhibitor for 10 hours (MG-132 5 μM, lactacystin 10 μM)
Method: Chinese Hamster Ovary (CHO) cells were grown in DMEM (Gibco BRL—Invitrogen, Carlsbad, Calif.) supplemented with 10% fetal bovine serum (FBS) and penicillin/streptomycin (Mediatech, Inc., Herndon, Va.) as described before (Puglielli et al., 2001, Nat. Cell Biol. 3: 905-912; Puglielli et al., 2003, J. Biol. Chem. 278: 19777-19783; Costantini et al., 2005, Biochem. J. 391: 59-67; Costantini et al., 2006, EMBO J. 25: 1997-2006). Cells were maintained in a humidified atmosphere with 5% CO2. For ceramide treatment, C6-ceramide (also simply called ceramide herein) was administered at the final concentration of 10 μM; treatment was started when cells were ˜30% confluent and carried out for 4 days, unless specified otherwise. Treatment with proteasome inhibitors MG-132 (5 μM) and lactacystin (10 μM) was done for 10 hours, as described earlier (Qing et al., 2004, FASEB J. 18: 1571-1573).
Cell lysates were prepared in GTIP buffer (100 mM Tris-pH 7.6, 20 mM EDTA, 1.5 M NaCl) with 1% Triton X-100 (Roche, Basel, Switzerland), 0.25% NP40 (Roche), and a protease inhibitor cocktail (Roche) as described before (Puglielli et al., 2003, J. Biol. Chem. 278: 19777-19783; Costantini et al., 2005, Biochem. J. 391: 59-67). Briefly, cell monolayers were washed twice in PBS, scraped, transferred into eppendorf tubes, and centrifuged at 8,000 rpm for 5 min in a table-top centrifuge. Cell pellets were then lysed in ice for 30 min with the buffer indicated above, and centrifuged again at 14,000 rpm prior to the recollection of the protein extracts. Proteins were quantitated with the BCA Protein Assay (Pierce, Rockford, Ill.) following the manufacturer's instructions.
For the immunoprecipitation of BACE1, cell lysates were pre-cleared with BioMag Protein A (Polysciences, Inc., Warrington, Pa.); beads were used at the concentration of 15 μl of the slurry per sample and separated with a magnetic holder. BACE1 was then immunoprecipitated with anti-BACE1 antibodies overnight and recovered with BioMag Protein A as above. The immunoprecipitate-bead complexes were washed 3 times in PBS and boiled for 10 min in SDS sample buffer (Invitrogen) with β-mercaptoethanol. Beads were then separated and the samples were analyzed by reducing SDS-PAGE.
Western blotting was performed on 10% Bis-Tris, 4-12% Bis-Tris, or 7% Tris-Acetate SDS-PAGE systems (NuPAGE; Invitrogen) as described (Puglielli et al., 2001, Nat. Cell Biol. 3: 905-912; Puglielli et al., 2003, J. Biol. Chem. 278: 19777-19783; Costantini et al., 2005, Biochem. J. 391: 59-67; Costantini et al., 2006, EMBO J. 25: 1997-2006). The following antibodies were used: anti-BACE1 N-terminal (monoclonal antibody; R&D Systems, Minneapolis, Minn.); anti-BACE1 C-terminal (polyclonal antibody; Abcam, Cambridge, Mass.); anti-pro-BACE1 (polyclonal; Abcam); anti-acetylated lysine (monoclonal; Abcam); anti-calreticulin (ER marker, polyclonal; Abcam); anti-58 K Golgi/formiminotransferase cyclodeaminase (Golgi marker, polyclonal; Abcam); anti-syntaxin (Golgi marker, monoclonal; Abcam); anti-EEA1 (endosomes, monoclonal; BD Transduction Laboratories, Lexington, Ky.); anti-actin (polyclonal; Cell Signaling, Danvers, Mass.). Secondary antibodies (Amersham) were used at a 1:6000 dilution. Binding was detected by chemiluminescence (LumiGLO kit; KPL, Gaithersburg, Md.). Only a representative blot of at least three different experiments is shown throughout the paper.
FIG. 1 illustrates how BACE1 is transiently acetylated in the lumen of the ER. For this experiment, CHO cells expressing human BACE1 were treated with C6-ceramide (also simply called ceramide herein) for different periods of time. BACE1 was then immunoprecipitated and analyzed by Western blotting. FIG. 1(A): CHO cells stably expressing BACE1 were treated with ceramide for the indicated time. BACE1 was immunoprecipitated from total cell lysates, separated on a 7% Tris-Acetate NuPAGE system, and then analyzed by Western blot using either anti-BACE1 or anti-acetylated lysine antibodies. […]

acetyl-CoA transport across the ER membrane [1] | SMILES | steady-state levels of BACE1Ala [2] | steady-state levels of BACE1WT [2]
inhibited | CC(C)(COP(=O)(O)OP(=O)(O)OC[C@H]1O[C@@H](n2cnc3c(N)ncnc32)[C@H](O)[C@@H]1OP(=O)(O)O)[C@@H](O)C(=O)NCCC(=O)NCCS [Coenzyme A] |  | 
 | CC(C)C[C@@H](C=O)NC(=O)[C@H](CC(C)C)NC(=O)[C@H](CC(C)C)NC(=O)OCc1ccccc1 [MG-132] (Cbz-Leu-Leu-Leu-aldehyde) | not those of BACE1Ala | successfully increased
 | CC(=O)N[C@@H](CSC(=O)[C@]1([C@@H](O)C(C)C)NC(=O)[C@H](C)[C@@H]1O)C(=O)O [lactacystin] | not those of BACE1Ala | successfully increased
